In patent US5591773A, “Inhibition of cataract formation, diseases resulting from oxidative stress, and HIV replication by caffeic acid esters” (priority 1994, dated 1997):
Where “and” joins values, the source holds several entries; their conditions need not be identical. Equal values may be shown once. Entries after “also recorded” stand apart in the source; their conditions may differ.

Legend:
[1] = test system: TPA-induced PMN infiltration in mouse skin (MPO); experiment: TPA-induced PMN infiltration (MPO) in dorsal skin of SENCAR mice; assay type: in vivo
Protocol: (§1) FIGS. 2A-2D. CAPE-mediated inhibition of TPA-induced oxidative processes in SENCAR mice. Mice were topically treated with 6.5 nmol CAPE 30 min prior to 6.5 nmol TPA, and this regimen was repeated 20 h later. Mice were sacrificed 1 h after the last treatment and the skin removed for determination of: (FIG. 2A) PMN infiltration (by measuring myeloperoxidase (MPO)); (FIG. 2B) H2 O2; (FIG. 2C) HMdUrd (HMdU); and (FIG. 2D) 8-OHdGua (8-OHdG), according to procedures described in the "Experimental Details" Section, infra. .quadrature., controls treated with acetone in place of CAPE and TPA; , treatment with acetone followed by TPA; .box-solid., treatment with CAPE followed by TPA. Results are expressed as mean ± SE (bars) from two experiments (2 mice/experiment) in the CAPE series. Data for acetone (ACT)- and TPA-treated mean values were collected from over 20 experiments.
A) Treatment of Animals and Assays. Female SENCAR (6-8 weeks old) and CD-1 mice (about 7 weeks old) were purchased from Biological Testing, National Cancer Institute (Frederick, Md.) and from Charles River Laboratory (Stone Ridge, N.Y.), respectively. The mice were acclimated for at least 1 week before use. They were subjected to a 12-h light/12-h dark cycle, housed at 20°±2° C. in a room with 10 cycles of air exchanges/h, given food and water ad libitum, and observed for any indication of ill health. Before topical application of any test agents, their backs were shaved and only those without hair growth after 48 h were used.
(§2) C) MPO, H2 O2, and Oxidized DNA Bases. SENCAR mice were pretreated with CAPE for 30 min; then 6.5 nmol (4 μg) TPA/mouse topically applied to the dorsal skin. After 20 h, the CAPE and TPA treatment (1x) was repeated (2x treatment). One h after the second treatment, the mice were sacrificed by cervical dislocation, and 12.5-mm punches were obtained to be used separately for MPO and H2 O2 determinations. The remainder of the treated mouse skin or the combined skins from two mice were used for separation of epidermal cells. This was done by heating the skin at 55° C. for 30 s followed by rapid immersion into an ice-cold water bath (45). After the epidermis was scraped off, the presence of oxidized DNA base derivatives was measured in the epidermal DNA. All of these end points were analyzed by published procedures and are briefly described below.
The assay for MPO was carried out according to the procedure of Metcalf et al. (53) with some modifications (20), and the results are expressed as units/cm^2, where a unit is defined as that degrading 1 μmol H2 O2 /min at 25° C. The presence of MPO in the mouse ears was measured in the homogenates. They were prepared by mincing the ears and homogenizing them in an ice-cold water bath with a polytron homogenizer, either twice for 20 s each or three times for 10 s each. Each homogenate was analyzed in duplicate and the results are expressed as mean MPO (units/mg protein) ±SE for each of the homogenates.
(§3) ^a Mice were treated as described in the legend to FIG. 2, except tha

[2] = test system: TPA-induced H2O2 production in mouse skin; experiment: TPA-induced H2O2 production in skin of SENCAR mice; assay type: in vivo
Protocol: as §1, §2
Punches used for H2 O2 determination were immediately minced with scissors in cold 50 mM phosphate buffer, pH 7.0, containing 10 mM azide that is needed for inhibition of catalase. They were then homogenized, and centrifuged at 4° C. and the supernatants were stored at -80° C. for up to 1 week. H2 O2 was measured in freshly thawed supernatants using horseradish peroxidase-mediated oxidation of phenol red (21), and the results are expressed as nmol H2 O2 /cm^2 /10-min incubation. Although organic hydroperoxides also can be generated under these conditions (45), we find that H2 O2 constitutes a great majority of the oxidants generated because 60-85% of the oxidants produced are catalase inhibitable (21).
as §3

[3] = test system: bovine lens (H2O2); experiment: H2O2 formation in bovine lens; assay type: cell-based; conditions: for H2O2 / increase in H2O2 concentration over control lenses: 24 h; for H2O2: mean of 3 ± SE
Protocol: (§4) B) Bovine Lens Bovine lenses were obtained from a New Jersey slaughterhouse 3 h after the animals were sacrificed. Lenses were immediately immersed in artificial aqueous humor (AAH; 130 mMNaCl, 5 mMKCl, 1 mM CaCl2, 0.5 mM MgCl2, 10 mM NaHCO3, 10 mM 4-(2-hydroxyethyl)-1-piperazineethanesulfonic acid (pH 7.3), and 2.5 mM D-glucose). Each of the bovine lenses in AAH (about 15 ml/lens) supplemented with 10 mM azide (a catalase inhibitor) was incubated with various amounts (0-1 μM) TPA at 37° C. for 24 h in the presence or absence of CAPE (1 μM), as described for use of other chemopreventive agents (31). For comparison, the lenses were also incubated with glucose (2.5 mM)/glucose oxidase (25 μM), a H2 O2 -generating system.
After incubation, lenses were homogenized in 15 ml of azide-supplemented AAH in a Waring Blender, and H2 O2 content was determined spectrofluorometrically, as described previously (55). Briefly, the homogenates were incubated with 2',7'-dichlorofluorescin diacetate, which is deacetylated by the esterase present in the homogenate. In the presence of HRPO, the nonfluorescent substrate was oxidized by H2 O2 generated in the lens to a highly fluorescent product, which was measured at excitation 475 nm and emission 525 nm (30, 31, 55). The amount of H2 O2 generated was determined from a standard curve, which was constructed by addition of increasing concentrations of H2 O2 to a homogenate derived from a control lens incubated only in AAH.

[4] = test system: bovine lens (opacity); experiment: TPA-induced opacity of bovine lens; assay type: cell-based; conditions: 0.1 μM TPA, 24 h
Protocol: FIGS. 5A-5C. CAPE-mediated protection of bovine lens from TPA-induced opacity. Lenses were incubated with artificial aqueous humor only (FIG. 5A); incubated with 0.1 μM TPA (FIG. 5B); and pretreated with 1 μM CAPE for 30 min followed by 0.1 μM TPA (FIG. 5C) for 24 h. After incubation, the lenses were photographed against 3-mm grids.
as §4
In some experiments, at the end of incubation [lenses in (a) AAH only (controls), (b) AAH+0.1 μM TPA, and (c) AAH+1 μM CAPE (30 min)+0.1 μM TPA] at 37° C. for 24 h, the lenses were photographed against a 3-mm grid.

O=C(/C=C/c1ccc(O)c(O)c1)OCCc1ccccc1 [CAPE, Caffeic acid phenethyl ester]
decrease of TPA-induced PMN infiltration ([1]; CAPE 6.5 nmol 30 min before each of two TPA 6.5 nmol applications, SENCAR mouse skin): ≈ 85% and 85%
MPO ([1]; CAPE 6.5 nmol pretreatment then TPA 6.5 nmol, 2x, (4 experiments), SE 0.3 on next line): 5.9 units/cm^2 skin
MPO ([1]; CAPE 650 nmol pretreatment then TPA 6.5 nmol, 2x, (4 experiments), SE 2.0 on next line): 10.8 units/cm^2 skin
TPA-mediated PMN infiltration and formation of HMdUrd and 8-OHdGua at high dose (in words) ([1]; CAPE 650 nmol/treatment, 2x, 20 h apart, vs 6.5 nmol): this reduction was not as effective as that caused by the lower (6.5 nmol) dose of CAPE
H2O2 ([2]; CAPE 6.5 nmol then TPA 6.5 nmol, 2x, (5 experiments), SE 2.2 on next line): 15.7 nmol/cm^2 skin
inhibition of TPA-induced H2O2 formation ([2]; CAPE 6.5 nmol, TPA 6.5 nmol, 2x, SENCAR mouse skin): 86%
H2O2 ([2]; CAPE 650 nmol then TPA 6.5 nmol, 2x, (5 experiments), SE 0.6 on next line): 11.6 nmol/cm^2 skin
H2O2 levels at high dose (in words) ([2]; CAPE 650 nmol/treatment vs 6.5 nmol): further decreased
H2O2 ([3]; 1 μM CAPE 30 min then 0.1 μM TPA): 13.1 ± 1.3 µM
H2O2, % of change from control ([3]; 1 μM CAPE/0.1 μM TPA): 110%
inhibition at 1 µM ([3]; Bos taurus, 1 μM CAPE 30 min, then 0.1 μM TPA 24 h, read-out: decline in TPA-induced H2O2 production): ~95%
prevention of lens opacification (in words) ([4]; 1 μM CAPE): almost completely prevented opacification of the lens; also recorded: suppressed formation of TPA-induced H2 O2 formation and opacification of lenses

CCCCCCCCCCCCCC(=O)O[C@@H]1[C@@H](C)[C@@]2(O)[C@@H](C=C(CO)C[C@]3(O)C(=O)C(C)=C[C@@H]23)[C@@H]2C(C)(C)[C@]12OC(C)=O [TPA, 12-O-tetradecanoylphorbol-13-acetate]
MPO ([1]; TPA alone, 6.5 nmol, mean ± SE (spread on next printed line: 7.6)): 23.7 units/cm^2 skin
H2O2 ([2]; TPA alone, 6.5 nmol, SE 0.7 on next line): 31.5 nmol/cm^2 skin
H2O2, % of change from control ([3]; 0.01 μM TPA): 95%
H2O2 ([3]; 0.01 μM TPA): 11.3 ± 0.2 µM
H2O2, % of change from control ([3]; 0.05 μM TPA): 200%
increase in H2O2 concentration over control lenses ([3]; 0.05 μM TPA): about 2 fold
H2O2 ([3]; 0.05 μM TPA): 23.3 ± 1.3 µM
H2O2, % of change from control ([3]; 0.10 μM TPA): 360%
increase in H2O2 concentration over control lenses ([3]; 0.1 μM TPA): ~3.5 fold
H2O2 ([3]; 0.10 μM TPA): 42.7 ± 1.6 µM
H2O2, % of change from control ([3]; 1.0 μM TPA): 705%
increase in H2O2 concentration over control lenses ([3]; 1.0 μM TPA): ~7 fold
H2O2 ([3]; 1.0 μM TPA): 83.8 ± 5.6 µM
lens opacity (in words) [4]: caused opacity of the lens
